The record followed here is ChEMBL document CHEMBL1149762, “Carbamate prodrugs of N-alkylfuramidines” (Eur J Med Chem, 2008).

In series [1] the test system is Rattus norvegicus. In words: Toxicity against immunosuppressed rat pneumocystis model at 33.0 umol/kg/day, po. Format: organism-based. The note with it: in vivo.
For series [2], the system named is Pneumocystis carinii. Kind of series: Antimicrobial activity against Pneumocystis carinii in immunosuppressed rat assessed as number of cysts/g of lung at 11.0 umol/kg/day, iv relative to control. Format: functional.
For series [3], the system named is Rattus norvegicus. Kind of series: Toxicity against immunosuppressed rat pneumocystis model at 11.0 umol/kg/day, iv. The note with it: in vivo. Format: organism-based.
Series [4] relates to Pneumocystis carinii. Kind of series: Antimicrobial activity against Pneumocystis carinii in immunosuppressed rat assessed as number of cysts/g of lung at 33.0 umol/kg/day, po relative to control. Format: functional.
Series [5] relates to Rattus norvegicus. In words: Toxicity against immunosuppressed rat pneumocystis model at 22.0 umol/kg/day, iv. The class given is organism-based. The note with it: in vivo.
The test system of series [6] is Pneumocystis carinii. In words: Antimicrobial activity against Pneumocystis carinii in immunosuppressed rat assessed as number of cysts/g of lung at 22.0 umol/kg/day, iv relative to control. The class given is functional.
The test system of series [7] is Pneumocystis carinii. Kind of series: Antimicrobial activity against Pneumocystis carinii in immunosuppressed rat assessed as number of cysts/g of lung at 9.4 umol/kg/day, iv relative to control. The class given is functional.
In series [8] the test system is Pneumocystis carinii. In words: Antimicrobial activity against Pneumocystis carinii in immunosuppressed rat assessed as number of cysts/g of lung at 39.8 umol/kg/day, po relative to control. The class given is functional.
The test system of series [9] is Rattus norvegicus. In words: Toxicity against immunosuppressed rat pneumocystis model at 39.8 umol/kg/day, po. Format: organism-based. The note with it: in vivo.
For series [10], the system named is Rattus norvegicus. Kind of series: Toxicity against immunosuppressed rat pneumocystis model at 13.3 umol/kg/day, iv. Format: organism-based. The settings on record: in vivo.
For series [11], the system named is Pneumocystis carinii. In words: Antimicrobial activity against Pneumocystis carinii in immunosuppressed rat assessed as number of cysts/g of lung at 13.3 umol/kg/day, iv relative to control. Format: functional.
For series [12], the system named is Rattus norvegicus. In words: Toxicity against immunosuppressed rat pneumocystis model at 10.8 umol/kg/day, iv. The class given is organism-based. The settings on record: in vivo.
The test system of series [13] is Pneumocystis carinii. In words: Antimicrobial activity against Pneumocystis carinii in immunosuppressed rat assessed as number of cysts/g of lung at 10.8 umol/kg/day, iv relative to control. Format: functional.

SMILES strings stand for the structures.

`CCOC(=O)/N=C(\NC(C)C)c1ccc(-c2ccc(-c3ccc(/C(=N/C(=O)OCC)NC(C)C)cc3)o2)cc1`: the Activity result in the series with Rattus norvegicus [1] is “Non-toxic”; in the series on Pneumocystis carinii [2] it was 82.21%; in the series on Rattus norvegicus [3], “Non-toxic”; in the series with Pneumocystis carinii [4], 51.92%.

As to `CC(C)N/C(=N\C(=O)OCC(Cl)(Cl)Cl)c1ccc(-c2ccc(-c3ccc(/C(=N\C(=O)OCC(Cl)(Cl)Cl)NC(C)C)cc3)o2)cc1`, the Activity result in the series with Rattus norvegicus [1] is given as “Non-toxic”; in the series on Rattus norvegicus [5] it was “Non-toxic”; in the series with Pneumocystis carinii [4], 2.01%; in the series on Pneumocystis carinii [6] it was 0.02%.

With `N=C(NC1CCCC1)c1ccc(-c2ccc(-c3ccc(C(=N)NC4CCCC4)cc3)o2)cc1`, the Activity result is on record as “Non-toxic” with Rattus norvegicus [1], 0.04% in the series with Pneumocystis carinii [7] and 125.3% with Pneumocystis carinii [4].

For `N=C(N)c1ccc(-c2ccc(-c3ccc(C(=N)N)cc3)o2)cc1` [FURAMIDINE], the Activity is recorded as 15.67% with Pneumocystis carinii [8], “Non-toxic” in the series on Rattus norvegicus [9], “Non-toxic” in the series with Rattus norvegicus [10] and 0.86% in the series with Pneumocystis carinii [11].

As to `O=C(/N=C(\NC1CCCC1)c1ccc(-c2ccc(-c3ccc(/C(=N\C(=O)OCC(Cl)(Cl)Cl)NC4CCCC4)cc3)o2)cc1)OCC(Cl)(Cl)Cl`, the Activity entry with Rattus norvegicus [1] was “Non-toxic”; in the series on Rattus norvegicus [5], “Non-toxic”; in the series on Pneumocystis carinii [4], 3.7%; in the series with Pneumocystis carinii [6], 39.84%.

Take `N=C(N)c1ccc(OCCCCCOc2ccc(C(=N)N)cc2)cc1` [PENTAMIDINE]: the Activity entry in the series with Rattus norvegicus [1] is listed as “Non-toxic”; with Pneumocystis carinii [4], 67.78%; in the series with Pneumocystis carinii [6] it was 2.75%.

Regarding `CC(C)NC(=N)c1ccc(-c2ccc(-c3ccc(C(=N)NC(C)C)cc3)o2)cc1`, the Activity result with Rattus norvegicus [1] is “Non-toxic”; with Rattus norvegicus [12], “Non-toxic”; in the series on Pneumocystis carinii [13], 0.26%; in the series with Pneumocystis carinii [4], 78.52%.

Turning to `CONC(=N)c1ccc(-c2ccc(-c3ccc(C(=N)NOC)cc3)o2)cc1` [PAFURAMIDINE], the Activity entry was “Non-toxic” in the series on Rattus norvegicus [1], “Non-toxic” in the series on Rattus norvegicus [5], 1.21% with Pneumocystis carinii [4] and 13.99% with Pneumocystis carinii [6].

Take `N/C(=N\C(=O)OCC(Cl)(Cl)Cl)c1ccc(-c2ccc(-c3ccc(/C(N)=N\C(=O)OCC(Cl)(Cl)Cl)cc3)o2)cc1`: the Activity result in the series with Rattus norvegicus [1] was “Non-toxic”; in the series with Rattus norvegicus [5], “Non-toxic”; with Pneumocystis carinii [4], 5.45%; in the series on Pneumocystis carinii [6], 1.72%.
